Experimental data as given in patent US8541343B2, “Chemical compounds and their use as pesticides” (Syngenta Crop Protection, Inc., priority 2009, dated 2013).

| melting point [°C] | SMILES |
| --- | --- |
| 80 to 85 | Cc1cc(C)c(C2C(=O)N(N(C)C)C3(CCN(N(C)C)CC3)C2=O)c(C)c1 (centres unmarked) [Compound A1, 1,8-Bis-dimethylamino-3-(2,4,6-trimethyl-phenyl)-1,8-diaza-spiro[4.5]decane-2,4-dione] |
| 105 | CCOC(=O)OC1=C(c2c(C)cc(C)cc2C)C(=O)N(N(C)C)C12CCN(N(C)C)CC2 [Compound A2, Carbonic acid 1,8-bis-dimethylamino-2-oxo-3-(2,4,6-trimethyl-phenyl)-1,8-diaza-spiro[4.5]dec-3-en-4-yl ester ethyl ester] |
